Columns and labels:
[1] = In vitro dicamba photo-release from photo-labile dicamba esters, tetrahydrofuran solvent (Example 26); assay type: physicochemical; settings: THF, 0.1 mM ester
Summary of the method: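 Esters at 0.1 mM in THF, sealed in quartz tubes and exposed to simulated sunlight 14 h per day at 35 °C. Dicamba released was measured over the photolysis, with an unilluminated sample of the starting solution serving as dark control.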

[2] = In vitro photo-release and hydrolytic release of dicamba in an aqueous medium (Example 35); assay type: physicochemical; settings: 0.01 mM ester, 35° C.
Euphorbia species = assay: Field testing for post-emergent activity in the Southern Hemisphere (Example 39); assay type: in vivo; settings: 9 as suspension concentrate, other esters as emulsifiable concentrates
Summary of the method: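 Southern Hemisphere field trial, post-emergence application on Euphorbia weeds. Esters applied as emulsifiable concentrates in aromatic solvent with emulsifiers, one ester as a suspension concentrate. Dicamba diglycolamine salt served as comparator.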

Palmer amaranth = assay: Extended pre-emergent control of Palmer amaranth; assay type: in vivo; settings: emulsifiable concentrate, 21 and 44 days after treatment
broadleaf weeds = assay: Control of broadleaf weeds by ester concentrates (statements of the description); assay type: in vivo; settings: emulsifiable and suspension concentrates; Sesbania macrocarpa, morning glory, velvetleaf, Palmer amaranth, fat hen, sicklepod
[3] = system: glyphosate-tolerant, dicamba-sensitive soy plants; assay: Humidome volatility injury to dicamba-sensitive plants (Example 31); settings: assessed after three weeks in greenhouse
Text: In this case, the diglycolamine salt of dicamba (CLARITY®) was used for comparison.
Dicamba photo-labile ester formulations from Example 28 were mixed with a commercial glyphosate formulation (ROUNDUP POWERMAX®) and diluted to provide a solution with a 0.5% dicamba equivalent concentrate of the ester (or dicamba diglycolamine salt) and 1.5% concentrate of glyphosate. The mixtures were sprayed at a 10 gallon per acre (93.5 liters per hectare) rate on soil in a plastic container (“humidome”) with a transparent lid. One soil container was sprayed with water as a control. Four glyphosate-tolerant, dicamba-sensitive soy plants between V2 and V3 stage were immediately placed on the sprayed soil and the domes attached to the trays with binder clips. The soy plants were in pots placed directly on the soil but with aluminum foil wrapped around the bottom to prevent uptake of dicamba or dicamba esters through the roots.
The closed containers were held for 24 hours in a growth chamber which was maintained at 35° C. with 40% relative humidity. The plants were then removed and grown in a greenhouse for three weeks. At this time plant injury and growth stage were assessed compared to the control treated with water only.

hemp sesbania = assay: Field testing of emulsifiable concentrates, post-emergent control (Example 38); assay type: in vivo
morning glory = assay: as above; assay type: in vivo
velvetleaf = assay: as above; assay type: in vivo
[4] = 280 and 420 g dicamba acid equivalent per hectare
[5] = 280 g dicamba acid equivalent per hectare, 11 or 21 days after treatment
[6] = 420 g dicamba acid equivalent per hectare, 11 or 21 days after treatment

COc1c(Cl)ccc(Cl)c1C(=O)Oc1cnc2ccccc2n1 [Ester 13a, 2-quinoxalinol ester of dicamba]
Dark Control % dicamba ([1]; initial solution kept away from the light source, analyzed at conclusion of study): 11% | Conversion to dicamba, 1 day ([1]; simulated sunlight 14 hours per day, 35° C., 1 day): 28% | Conversion to dicamba, 2 days ([1]; simulated sunlight 14 hours per day, 35° C., 2 days): 35% | Conversion to dicamba, 3 days ([1]; simulated sunlight 14 hours per day, 35° C., 3 days): 43% | Conversion to dicamba, 5 days ([1]; simulated sunlight 14 hours per day, 35° C., 5 days): 48% | Conversion to dicamba, 7 days ([1]; simulated sunlight 14 hours per day, 35° C., 7 days): 61% | Conversion to dicamba, 11 days ([1]; simulated sunlight 14 hours per day, 35° C., 11 days): 66% | Conversion to dicamba, 15 days ([1]; simulated sunlight 14 hours per day, 35° C., 15 days): 68% | Conversion to Dicamba, Dark, Day 0 ([2]; amber (dark) bottle, Day 0): 8% | Conversion to Dicamba, Dark, Day 1 ([2]; amber (dark) bottle, Day 1): 7% | Conversion to Dicamba, Dark, Day 2 ([2]; amber (dark) bottle, Day 2): 7% | Conversion to Dicamba, Dark, Day 3 ([2]; amber (dark) bottle, Day 3): 8% | Conversion to Dicamba, Dark, Day 4 ([2]; amber (dark) bottle, Day 4): 8% | Conversion to Dicamba, Dark, Day 7 ([2]; amber (dark) bottle, Day 7): 9% | Conversion to dicamba, Dark, Day 11 ([2]; amber (dark) bottle, Day 11): 11% | Conversion to Dicamba, Dark, Day 14 ([2]; amber (dark) bottle, Day 14): 12% | Conversion to Dicamba, Light, Day 0 ([2]; quartz tube, 14-hour day, Day 0): 8% | Conversion to Dicamba, Light, Day 1 ([2]; quartz tube, 14-hour day, Day 1): 9% | Conversion to Dicamba, Light, Day 2 ([2]; quartz tube, 14-hour day, Day 2): 12% | Conversion to Dicamba, Light, Day 3 ([2]; quartz tube, 14-hour day, Day 3): 13% | Conversion to Dicamba, Light, Day 4 ([2]; quartz tube, 14-hour day, Day 4): 13% | Conversion to Dicamba, Light, Day 7 ([2]; quartz tube, 14-hour day, Day 7): 15% | Conversion to dicamba, Light, Day 11 ([2]; quartz tube, 14-hour day, Day 11): 19% | Conversion to Dicamba, Light, Day 14 ([2]; quartz tube, 14-hour day, Day 14): 20% | % control, 0.25 lb/ac (0.28 kg/hectare) (Euphorbia species; 0.25 lb dicamba a.e. per acre): 46% | % control, 0.50 lb/ac (0.56 kg/hectare) (Euphorbia species; 0.50 lb dicamba a.e. per acre): 55% | extended pre-emergent control of Palmer amaranth compared with the diglycolamine salt of dicamba, in words (Palmer amaranth): superior extended pre-emergent control | control of a number of broadleaf weeds in field testing, in words (broadleaf weeds): proven effective | % Injury ([3]; soy plants 24 hours in closed humidome over sprayed soil (0.5% dicamba equivalent + 1.5% glyphosate), 35° C.): 18% | Growth Stage ([3]; soy plants 24 hours in closed humidome over sprayed soil): 8 | post-emergent control of hemp sesbania compared with the dicamba salt, in words (hemp sesbania; [4]): equivalent to the dicamba salt | % control, 280 g/ha, Hemp sesbania (hemp sesbania; [5]): 95% | % control, 420 g/ha, Hemp sesbania (hemp sesbania; [6]): 98% | post-emergent control of morning glory compared with the dicamba salt, in words (morning glory; [4]): equivalent to the dicamba salt | % control, 280 g/ha, Morning glory (morning glory; [5]): 100% | % control, 420 g/ha, Morning glory (morning glory; [6]): 100% | post-emergent control of velvetleaf compared with the dicamba salt, in words (velvetleaf; [4]): nearly equivalent to the dicamba salt | % control, 280 g/ha, Velvetleaf (velvetleaf; [5]): 72% | % control, 420 g/ha, Velvetleaf (velvetleaf; [6]): 84%

— patent US20170029355A1, “LABILE ESTERS OF AGROCHEMICALS FOR CONTROLLED RELEASE AND REDUCTION OF OFF-SITE MOVEMENT” (Monsanto Technology LLC, priority 2011, published 2017)
